Reference: publication PMC10265666, “Lung SPLUNC1 Peptide Derivatives in the Lipid Membrane Headgroup Kill Gram-Negative Planktonic and Biofilm Bacteria” (Biomacromolecules, 2023)

System: Klebsiella pneumoniae, 24 clinical isolates and 1 lab strain
Assay type: cell-based
Settings: average over 25 K. pneumoniae substrains; 37 °C, 16 h, OD 570 nm; growth at 32 μM counted as 64 μM
Experimental: Minimum inhibitory concentration (MIC, defined as the minimum AMP concentration to prevent bacterial growth) and biofilm data were obtained by UV–vis spectroscopy using a BioTek Epoch 2 microplate reader.
K. pneumoniae substrains were grown overnight using 50 mL plastic conical tubes on a shaker platform at 37 °C. The following day, serial dilutions of the four SPLUNC1 peptides and LL-37 were tested against these 25 substrains of K. pneumoniae using a 96-well plate. […] Following the addition of the peptides at the tested concentrations from serial dilutions to the K. pneumoniae substrains, the plates were incubated at 37 °C for 16 h. Then, visible spectroscopy at λ = 570 nm was performed to determine the bacterial absorption in each well. Those wells with an optical density reading above a threshold value were deemed resistant to the peptide, while those that were below the threshold value were deemed sensitive to the peptide. The threshold value was determined using Gen5 software with the Di lab Growth Inhibition Assay protocol.
Average MICs and standard deviations were calculated by first averaging the absorbances as a function of AMP concentration in all of the bacterial strains from four total data sets. Then, the average MICs were determined from the averaged absorbances. The standard deviations of the MICs were calculated from each of the absorbances that were used to calculate the average. Then, the standard deviations were averaged across substrains for the graph. These procedures were used to obtain an average MIC with standard deviation across all 25 substrains for one peptide, in order to compare peptide efficacy. Typically, many more substrains are used to obtain an average MIC, so this average MIC may change if thousands of substrains are compared.

Q: With CC[C@H](C)[C@H](NC(=O)[C@@H](NC(=O)[C@H](CO)NC(=O)[C@H](CCCCN)NC(=O)[C@@H](NC(=O)[C@H](CCCCN)NC(=O)CNC(=O)[C@H](Cc1c[nH]c2ccccc12)NC(=O)[C@@H](NC(=O)CNC(=O)CNC(=O)[C@@H](NC(=O)[C@H](Cc1c[nH]c2ccccc12)NC(=O)CNC(=O)[C@H](CCCCN)NC(=O)[C@@H](NC(=O)[C@H](CCCCN)NC(=O)[C@H](CCCCN)NC(=O)[C@H](Cc1ccccc1)NC(=O)[C@H](Cc1ccccc1)NC(=O)[C@H](CCCCN)NC(=O)[C@H](CCCCN)NC(=O)[C@@H](N)CC(C)C)C(C)C)C(C)C)C(C)C)C(C)C)C(C)C)C(=O)N[C@@H](CCCCN)C(=O)O (stereo in doubt) [A4-153] as the molecule, how does the “average MIC value” read?
A: Its value is 18 µM.
